# Data as given in patent US20090099135A1, “Pest control compositions and methods” (priority 2007, published 2009).
# Assays:
# [1] = target: T1, tyramine receptor (TyrR) (Drosophila melanogaster, UniProt P22270); assay: Saturation binding of 3H-tyramine to membranes of Schneider cells expressing tyramine receptor; conditions: membranes of cells stably transfected with pAcB-TyrR
# T1 construct: oligonucleotides that are used to amplify the open reading frame of the Drosophila tyramine receptor (TyrR); expressed in transfected cells
# T1 sequence (P22270 27-601): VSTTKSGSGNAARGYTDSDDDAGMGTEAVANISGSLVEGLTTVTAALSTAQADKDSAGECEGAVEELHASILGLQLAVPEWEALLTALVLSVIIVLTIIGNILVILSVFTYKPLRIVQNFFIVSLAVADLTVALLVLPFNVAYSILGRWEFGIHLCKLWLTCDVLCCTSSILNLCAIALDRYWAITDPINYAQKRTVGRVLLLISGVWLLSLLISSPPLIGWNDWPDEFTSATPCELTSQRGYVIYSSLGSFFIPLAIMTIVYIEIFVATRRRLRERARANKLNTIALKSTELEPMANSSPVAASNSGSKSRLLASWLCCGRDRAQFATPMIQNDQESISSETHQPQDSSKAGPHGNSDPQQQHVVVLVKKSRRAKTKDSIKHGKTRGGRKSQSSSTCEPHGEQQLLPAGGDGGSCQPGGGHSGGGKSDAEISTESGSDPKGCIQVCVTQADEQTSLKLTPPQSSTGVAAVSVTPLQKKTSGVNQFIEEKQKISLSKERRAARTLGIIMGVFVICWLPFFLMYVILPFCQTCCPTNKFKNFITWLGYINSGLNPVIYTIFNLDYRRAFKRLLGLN
# Method: To study the kinetics of the tyramine receptor in stably transfected cells with pAcB-TyrR, crude membrane fractions are prepared from the transfected cells and used to calculate the equilibrium dissociation constant (Kd), Maximum Binding Capacity (Bmax), equilibrium inhibitor dissociation constant (Ki) and EC50 (effective concentration at which binding is inhibited by 50%). A preliminary study to determine the optimum concentration of membrane protein for receptor binding activity is performed. In this study, different concentrations of protein (about 10-50 μg/reaction) are incubated in about 1 ml binding buffer (50 mM Tris, pH 7.4, 5 mM MgCl2 and 2 mM ascorbic acid). The reaction is initiated by the addition of about 5 nM ^3H-tyramine with and without about […] unlabeled tyramine. After about 1 hr incubation at room temperature, reactions are terminated by filtration through GF/C filters (VWR), which have been previously soaked in about 0.3% polyethyleneimine (PEI). The filters are washed one time with about 4 ml ice cold Tris buffer and air dried before the retained radioactivity is measured using LSC. […]
# To determine Bmax and Kd values for tyramine receptor (TyrR) in membranes expressing TyrR, saturation binding experiments are performed. […] Binding data is analyzed by curve fitting (GraphPad software, Prism) and the Kd for tyramine binding to its receptor is determined. […]
# [2] = target: T2, tyramine receptor (Drosophila melanogaster, UniProt P22270); assay: Whole cell 3H-tyramine binding in Schneider cells transfected with tyramine receptor
# T2 construct: oligonucleotides that are used to amplify the open reading frame of the Drosophila tyramine receptor (TyrR); expressed in transfected cells
# T2 sequence (P22270 27-601): T1 sequence (P22270 27-601)
# Method: Cells transfected with the tyramine receptor (about 1×10^6 cells/ml) are cultured in each well of a multi-well plate. About 24 hours after plating the cells, the medium is withdrawn and replaced with about 1 ml insect saline (about 23 C). Different concentrations of ^3H-tyramine (about 0.1-10 nM) are added with and without about 10 μM unlabeled tyramine and incubated at room temperature (RT). After about a 20 minute incubation, the reaction is stopped by rapid aspiration of the saline and at least one wash with about 2 ml insect saline (about 23 C). Cells are solubilized in about 300 μl 0.3M NaOH for about 20 min at RT. Solubilized cells are transferred into about 4 ml Liquid Scintillation Solution (LSS) and vigorously vortexed for about 30 sec before counting the radioactivity using a Liquid Scintillation P-counter (Beckman, Model LS1801) (LSC).
# Receptor specific binding data is expressed as fmol specific binding per 1×10^6 cells and measured as a function of ^3H-tyramine concentration. Specific binding values are calculated as the difference between values in the absence of and values in the presence of about 10 μM unlabeled tyramine. The maximum specific binding occurs at about 5 nM ^3H-tyramine.
# [3] = target: Aedes aegypti; assay: Pesticidal effect (KD) against Aedes aegypti; format: in vivo
# Method: With reference to FIG. 4A, the pesticidal effect against Aedes aegypti was determined for Blend 23 (labeled “HL1”) and the composition including CL and Blend 23.
# Similarly, with reference to FIG. 4B, the pesticidal effect against Aedes aegypti was determined for Blend 23 (labeled “HL1”) and the composition including CL and Blend 23.
# Similarly, with reference to FIG. 4C, the pesticidal effect against Aedes aegypti was determined for Blend 23 (labeled “HL1”) and the composition including Imidacloprid and Blend 23.
# [4] = tested on: Periplaneta americana; assay: Pesticidal effect (mortality) against Periplaneta americana; format: in vivo; conditions: Blend 23 5%
# Method: With reference to FIG. 6A, the pesticidal effect against Periplaneta americana was determined for Blend 23 (labeled “HL1”) and the composition including CL and Blend 23.
# With reference to FIG. 6B, the pesticidal effect against Periplaneta americana was determined for Blend 23 (labeled “HL1”) and the composition including Imidacloprid and Blend 23.
# [5] = tested on: Culex quinquefasciatus; assay: Repellency effect against Culex quinquefasciatus (biting counts on volunteers' legs); format: in vivo
# Method: The repellency of exemplary compositions of the present invention are compared to the repellency of their individual ingredients, and to a non-treated control. Southern house mosquitoes, Culex quinquefasciatus, are obtained as test organisms. Multiple human evaluators test each treatment in a replicated experiment. Experimentation is conducted in a laboratory using multiple-chambered, plexiglass modules, each chamber stocked with about 2-10 day-old colony-reared female mosquitoes. The modules are equipped with sliding doors to expose the mosquitoes to the legs of three volunteers. Treatments are applied at about 28.6 μl to 12 cm^2 rectangular sections of skin located directly beneath the chamber openings. Each volunteer conducts 2-minute biting counts for each treatment at five time intervals: 0, 1, 2, 4 & 6 hours post-treatment. New mosquitoes are stocked into the chamber for each time interval. Ambient temperature and humidity data is recorded with a HOBO datalogger. Percent repellency is determined according to the following formula: Control−Treatment/Control X 100.
# [6] = Interim field plot ratings, South Georgia: flower damage rating; format: in vivo; conditions: rate not given; 1 wk after treatment
# [7] = tested on: Thrips (on cotton); assay: Interim field plot ratings, South Georgia: thrips on cotton; format: in vivo; conditions: rate not given; 1 wk after treatment
# [8] = tested on: aphids (on cotton); assay: Interim field plot ratings, South Georgia: aphids on cotton; format: in vivo; conditions: rate not given; 1 wk after treatment
# [9] = tested on: Whitefly (on zucchini); assay: Interim field plot ratings, South Georgia: whitefly on zucchini; format: in vivo; conditions: rate not given; 1 wk after treatment
# [10] = target: T3, TyrR (Drosophila melanogaster, UniProt P22270); assay: TyrR competition binding assay (% binding inhibition)
# T3 sequence (P22270 27-601): T1 sequence (P22270 27-601)
# Method: When the chemical(s) and compound(s) are combined to provide the compositions of the present invention, there is a synergistic effect.
# (§1) To determine the affinities of several ligands for TyrR, increasing concentration of several compounds are tested for their ability to inhibit binding of about 2 nM ^3H-tyramine. For both saturation and inhibition assays total and non-specific binding is determined in the absence and presence of about 10 μM unlabeled-tyramine, respectively. Receptor binding reactions are incubated for about 1 hour at room temperature (RT) in restricted light. Reactions are terminated by filtration through GF/C filters (VWR), which have been previously soaked in about 0.3% polyethyleneimine (PEI). The filters are washed one time with about 4 ml ice cold Tris buffer and air dried before retained radioactivity is measured using LSC. Binding data is analyzed by curve fitting (GraphPad software, Prism).
# [11] = tested on: Blattella germanica (German cockroaches); assay: Pesticidal effect against German cockroaches (KD and 100% kill time); format: in vivo
# Method: With reference to Table 15, the pesticidal effect against Blattella germanica (German cockroaches) was determined for DM, Blend 12, and the composition including DM and Blend 12.
# A synergistic effect was shown for the combination treatment that results in an average KD of the insects in 5 sec, and 100% killing of the insects in 17 seconds.
# [12] = tested on: Drosophila sp.; assay: Pesticidal effect (KD) against Drosophila sp.; format: in vivo; conditions: FIG. 4D; Imidacloprid 50 ppm; Blend 23 2.5%; combination of both
# Method: Similarly, with reference to FIG. 4D, the pesticidal effect against Drosophila sp. was determined for Blend 23 (labeled “HL1”) and the composition including Imidacloprid and Blend 23.
# [13] = target: T1, tyramine receptor (TyrR); assay: Inhibition binding of 3H-tyramine to membranes of Schneider cells expressing tyramine receptor; conditions: compared with tyramine
# Method: To study the kinetics of the tyramine receptor in stably transfected cells with pAcB-TyrR, crude membrane fractions are prepared from the transfected cells and used to calculate the equilibrium dissociation constant (Kd), Maximum Binding Capacity (Bmax), equilibrium inhibitor dissociation constant (Ki) and EC50 (effective concentration at which binding is inhibited by 50%). A preliminary study to determine the optimum concentration of membrane protein for receptor binding activity is performed. In this study, different concentrations of protein (about 10-50 μg/reaction) are incubated in about 1 ml binding buffer (50 mM Tris, pH 7.4, 5 mM MgCl2 and 2 mM ascorbic acid). The reaction is initiated by the addition of about 5 nM ^3H-tyramine with and without about […] unlabeled tyramine. After about 1 hr incubation at room temperature, reactions are terminated by filtration through GF/C filters (VWR), which have been previously soaked in about 0.3% polyethyleneimine (PEI). The filters are washed one time with about 4 ml ice cold Tris buffer and air dried before the retained radioactivity is measured using LSC. Binding data is analyzed by curve fitting (GraphPad software, Prism). […] Therefore, about 10 μg protein/reaction is used.
# as §1
smiles,measurement,setting,value
"NCCc1ccc(O)cc1 [Blend 3H-tyramine, ^3H-tyramine]",Bmax,[1],about 0.679 μmol/mg protein
same,Kd,[1],~1.26 nM
same,concentration at which maximum specific binding occurs,[2]; whole transfected cells,about 5 nM
"CN/C(=N\[N+](=O)[O-])NCc1cnc(Cl)s1 [CL, clothianidin]",KD of target insect,"[3]; FIG. 4A, CL alone 500 ppm, CL 167 ppm combined with 2.5% Blend 23",no KD
same,KD of target insect,"[3]; FIG. 4B, CL alone 250 ppm, CL 167 ppm combined with 2.5% Blend 23",no KD
same,mortality 30 minutes post-treatment,"[4]; FIG. 6A, CL 0.05%, combination of both",no mortality
"CCN(CC)C(=O)c1cccc(C)c1 [DEET, N,N-DIETHYL-3-METHYLBENZAMIDE]","Percent repellency, 0",[5]; 0 hours post-treatment,40%
same,"Percent repellency, 1 Hour",[5]; 1 hour post-treatment,20%
same,"Percent repellency, 2 Hours",[5]; 2 hours post-treatment,10%
same,"Percent repellency, 4 Hours",[5]; 4 hours post-treatment,5%
same,"Percent repellency, 6 Hours",[5]; 6 hours post-treatment,0%
same,Activity Ratio (repellency at 1 hour),[5]; effect of composition (5% DEET and 95% Blend 9) divided by effect of comparison composition,(1.00)/(0.20) = 5.0
same,Synergy Coefficient (repellency at 1 hour),[5]; of composition (5% DEET and 95% Blend 9) relative to comparison composition,100
"CC1(C)[C@H](C(=O)O[C@H](C#N)c2cccc(Oc3ccccc3)c2)[C@@H]1C=C(Br)Br [DM, deltamethrin]",Flower damage (1-5 rating scale; 1 = no damage),[6],2.2
same,"Thrips (on cotton), insect count",[7],13
same,"aphids (on cotton) Adults, insect count",[8],15
same,"aphids (on cotton) Nymph, insect count",[8],26
same,"Whitefly (on zucchini) Adult, insect count",[9],18
same,"Whitefly (on zucchini) Nymph, insect count",[9],142
same,% TyrR Binding Inhibition,[10],10%
same,100% Kill (time),"[11]; Example 4, DM 0.037 mg/cm^2, Blend 12 1.9 mg/cm^2",15 min
same,100% Kill (time),"[11]; Table 16, DM 0.037 mg/cm^2",12 min
"O=[N+]([O-])NC1=NCCN1Cc1ccc(Cl)nc1 [Imidacloprid, 1-[(6-Chloro-3-pyridinyl)methyl]-N-nitro-2-imidazolidinimine]",Flower damage (1-5 rating scale; 1 = no damage),[6],2.0
same,"Thrips (on cotton), insect count",[7],9
same,"aphids (on cotton) Adults, insect count",[8],0.3
same,"aphids (on cotton) Nymph, insect count",[8],1.6
same,KD of target insect at 30 seconds post-treatment,[12],0%
same,"Whitefly (on zucchini) Adult, insect count",[9],16
same,"Whitefly (on zucchini) Nymph, insect count",[9],5
same,KD of target insect at 30 seconds post-treatment,"[3]; FIG. 4C, Imidacloprid 250 ppm, Blend 23 2.5%, combination of both",20%
same,KD of target insect,"[3]; FIG. 5, Imidacloprid 500 ppm, B5028 5%, combination of both",no KD
same,mortality 30 minutes post-treatment,"[4]; FIG. 6B, Imidacloprid alone 0.05%, 0.033%, 0.01%, Imidacloprid 0.033% combined with 5% Blend 23",no mortality
NCC(O)c1ccc(O)cc1 (stereo not shown) [Octopamine],efficiency at displacing 3H-tyramine binding,[13],less efficient than tyramine
"NCCc1ccc(O)cc1 [Tyramine (TA), Tyramine]",% TyrR Binding Inhibition,[10],75%
same,response of untransfected cells,[2]; concentrations as high as about 100 μM,do not respond
"NCCc1ccc(O)c(O)c1 [dopamine, Dopamine]",efficiency at displacing 3H-tyramine binding,[13],less efficient than tyramine
"NCCc1c[nH]c2ccc(O)cc12 [serotonin, Serotonin]",efficiency at displacing 3H-tyramine binding,[13],less efficient than tyramine
